This passage reports AC35 results from PubChem BioAssay AID743402 (Broad Institute, 2014).

One experiment concerns FRT CFTR-F508del YFP iodide quenching, 24 h. The experiment is described as follows: restoration of mutant CFTR halide transport – FRT cells, YFP quenching, cherry-pick, dose response (AID 743402).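 Further: compounds act as correctors raising surface CFTR-F508del before acute activation.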
Conditions: not given
With `CC1(C)OC(c2ccccc2)=C/C(=C/C=C2C(=O)NC(=S)NC2=O)O1`, the AC35 was 3.34 µM.

On to `CC1(C)OC(c2ccccc2)=C/C(=C/C=C2C(=O)NC(=O)NC2=O)O1`, for which the AC35 was 13.4 µM. `COC1C(C)OC(OC2CC(C)(O)Cc3cc4c(c(O)c32)C(=O)c2c(O)cc3c(c2C4=O)OC2OC3(C)C(O)C(N(C)C)C2O)C(OC)C1(C)OC` (centres undefined): the AC35 was 2.39 µM.

The experiment is the same for the next values; noted with them: channel opened with forskolin and a potentiator.
Consider `O=C1c2cccc3c([N+](=O)[O-])ccc(c23)C(=O)N1Cc1cccnc1`, for which the AC35 was 9.18 µM. Still for that read-out and setting: the figure for `N#Cc1ccc(-c2ccc3c(c2)[C@H]2[C@H](CCN2S(=O)(=O)c2ccccc2F)[C@@H](CO)N3)cc1` is 21.3 µM; for `COc1cccc2c1C(=O)c1c(O)c3c(c(O)c1C2=O)CC(O)(C(=O)CO)CC3OC1CC(N(C)C)C(O)C(C)O1` (centres undefined) it is 1.37 µM; for `Cn1c(=O)c(NC2CCCCC2)c2c3c(cccc31)C(=O)c1ccccc1-2` it is 1.05 µM. The same measure, in the same setting: the figure for `N#C/C(=C\c1ccccn1)c1nc2ccccc2s1` is 3.38 µM; for `CN(C)CCNc1ccc2ncn3c4ccc(O)cc4c(=O)c1c23` it is 8.57 µM.

Consider `c1ccc2c(NCCCN3CCOCC3)c3ccccc3nc2c1`, for which the AC35 was 16.6 µM. The same measure, in the same setting: the same measure for `COc1cccc2c1C(=O)C=C(C)C2=O`: 6.68 µM.

In the case of `O=C(Nc1cccc(F)c1)N1CCCCN2[C@@H](CO)[C@H](c3ccc(C#CC4CC4)cc3)[C@@H]2C1`, the AC35 is 20.8 µM. Still for that read-out and setting: the figure for `CCN(CC)CCCNc1ccc2ncn3c4ccc(O)cc4c(=O)c1c23` is 4.01 µM; for `CCC(=O)N1CC2(CCN(Cc3ccc(Cl)cc3)CC2)c2c([nH]c3cc(OC)ccc23)[C@H]1CO` it is 22.2 µM. On the same count and under the same terms, the same measure for `N#Cc1ccc(-c2ccc(C3[C@@H]4CN(C(=O)C5CCC5)C[C@H]3N4)cc2)cc1` (some centres undefined): 22.1 µM; for `CC(=O)OCCn1c2nc(=O)[nH]c(=O)c-2nc2cc(C)c(C)cc21`: 1.37 µM; for `CCN1/C(=C/c2ccc3cc(C)cc(C)c3[n+]2CC)Sc2cc(C)ccc21`: 1.05 µM. Still for that read-out and setting: the figure for `COc1cccc2c1C(=O)c1c(O)c3c(c(O)c1C2=O)C[C@@](O)(C(C)=O)C[C@@H]3O[C@H]1C[C@H](N)[C@H](O)[C@H](C)O1` is 0.856 µM. Turning to `CC1(S(=O)(=O)O)CC(=O)c2ccccc2C1=O` (centres undefined), the AC35 was 6 µM. The same measure, in the same setting: the figure for `CN(C)CCNC(=O)c1ccc(Cl)c2cc3ccccc3nc12` is 9.45 µM.

As to `COc1cccc2c1C(=O)c1c(O)c3c(c(O)c1C2=O)CC(O)(C(C)=O)CC3OC1CC(N(C)C)C(O)C(C)O1` (centres undefined), the AC35 is 1.03 µM. The same measure, in the same setting: the figure for `CCOC(=O)C1CCCN(c2ccc([N+](=O)[O-])c3nonc23)C1` (centres undefined) is 5.34 µM; for `N#CC(C#N)=C1C=C2C=C(N3CCOCC3)CCC2CC1` (centres undefined) it is 0.14 µM; for `C[C@@H]1CCCCO[C@H](CN(C)Cc2ccc(Cl)c(Cl)c2)[C@@H](C)CN([C@@H](C)CO)C(=O)c2cc(NS(=O)(=O)c3ccc(Cl)cc3)ccc2O1` it is 23.5 µM.

As to `COc1ccc(/C=N/NC(=O)c2cccnc2)cc1CSc1ccccn1`, the AC35 is 8.21 µM. In the case of `CC(=NNC(=O)c1ccncc1)c1ccc2ccccc2c1O`, the AC35 is 4.3 µM.

`Cc1ccnc(N2C(=O)c3cccc4c([N+](=O)[O-])ccc(c34)C2=O)c1`: the AC35 is 7.01 µM. Same read-out and setting: the same measure for `O=S(=O)(c1ccc(F)cc1)N1CC[C@@H]2[C@@H](CO)Nc3ccc(-c4ccc(F)cc4)cc3[C@@H]21`: 17.7 µM; for `C=C1SC(Nc2c(C)cc(C)cc2C)=NC12CCCCC2`: 3.59 µM; for `N#C/C(=C/c1ccc(N2CCCCC2)o1)C(=O)Nc1ccc2ccccc2c1`: 2.37 µM. Same read-out and setting: the same measure for `CC(C)n1cc(/C=C/c2cc[n+](C)cc2)c2ccccc21`: 0.752 µM; for `C[C@@H]1CN([C@@H](C)CO)C(=O)Cc2cc(N(C)C)ccc2O[C@@H]1CN(C)Cc1ccc(C(=O)Nc2ccccc2N)cc1`: 19.7 µM; for `CN1c2ccc(-c3ccc(F)cc3)cc2[C@H]2[C@H](CCN2S(=O)(=O)c2cccc(F)c2)[C@H]1CO`: 15.5 µM.

As for `COc1cccc(-c2ccc(C3[C@@H]4CN(S(=O)(=O)c5cccc(OC)c5)C[C@H]3N4)cc2)c1` (some centres undefined), the AC35 is 16 µM. On the same count and under the same terms, the same measure for `CCOC1=C/C(=C/c2c(N)n3nc(S(=O)(=O)CC)sc3nc2=O)C=CC1=O`: 9.92 µM. On the same count and under the same terms, the same measure for `COc1cccc(S(=O)(=O)N2C[C@@H]3N[C@H](C2)C3c2ccc(-c3cccc(C)c3)cc2)c1` (some centres undefined): 21 µM. The same measure, in the same setting: the same measure for `CCOc1ccc(C)cc1S(=O)(=O)n1cnc2ccccc21`: 15.9 µM. `COc1cc(OC)cc(C(=O)N[C@H](C(=O)Nc2nc3ccccc3[nH]2)C(C)C)c1`: the AC35 was 9.27 µM. On the same count and under the same terms, the figure for `CN1c2ccc(-c3ccc(F)cc3)cc2[C@H]2[C@H](CCN2S(=O)(=O)c2ccc(F)cc2)[C@H]1CO` is 21.9 µM.
